In US20210137935A1, “CORTICOTROPIN RELEASING FACTOR RECEPTOR ANTAGONISTS” (Spruce Biosciences, Inc., priority 2017, published 2021):
Like-named read-outs stand apart in the source and are kept apart here.

What was measured:
Assay type in all cases: in vivo, human
ACTH = experiment: Phase 2 study in adults with classic CAH: ACTH; details: patients with classic CAH
Description: (§1) Cohort A of the Phase 2 Study includes a 6-week, multiple-dose, dose escalation study of Compound 1 for the treatment of adults with classic CAH. After screening, eligible patients will be enrolled into a 6-week treatment period followed by a 4-week washout/safety follow-up period.
(§2) This cohort will be conducted in approximately 9 patients, who will receive Compound 1 daily for up to 6 weeks. Compound 1 will be administered as an oral daily dose. Patients will undergo titration of Compound 1 through three escalating dosage strengths at 2-week intervals. Patients will have overnight PK/PD assessments performed at baseline, which include an pre-dose overnight assessment and a post-dose overnight assessment for PK/PD following administration of the first dose. At the end of each 2-week dosing period, patients will return for single overnight visits for steady-state PK/PD assessments. A follow-up outpatient visit will occur 30 days after their last dose. Upon completion of the initial cohort (Cohort A), the study will proceed to a multiple ascending dose (MAD) design with up to 3 sequential cohorts (Cohorts B, C, and D) to further evaluate the safety, PK, and PD of various SPR001 dosing regimens and to identify an optimal dose regimen. Each cohort will undergo a 2-week run-in period, a 2-week treatment period, and a 30-day washout and safety follow-up period. During the run-in period, which will occur during screening, subjects will document in a paper diary each dose of glucocorticoid medication taken, the time of each meal, and the time they went to bed and woke up each day, to ensure compliance with background glucocorticoid regimens and the stability of their daily routine.
(§3) • 3. To explore the dose(s) of Compound 1 that cause pharmacodynamics changes in plasma concentrations of ACTH, androstenedione, and testosterone, as measured by the absolute and percent change from baseline by dose. • 4. To determine pharmacokinetics of Compound 1 in subjects with CAH. • 5. To explore potential relationships between pharmacodynamics and pharmacokinetics. […]

17-OHP = experiment: Phase 2 study in adults with classic CAH: 17-OHP; details: patients with classic CAH
Description: as §1, §2
• 1. To evaluate the safety of Compound 1 in subjects with CAH. • 2. To assess the efficacy of Compound 1 in subjects with classic CAH as measured by percent and absolute change in 17-OHP compared to baseline.
This allows for steroid taper. […] 50% of subjects were within the guideline range (1200 ng/dL) after treatment.

[1] = Phase 1 safety and tolerability (Study 1 and Study 2); details: healthy subjects
Description: (§4) Study 1 was the first-in-human study that investigated the safety, tolerability, and PK of single-escalating doses of Compound 1, given orally, to healthy adult subjects. […] The data from this study were used for the selection of doses for Study 2.
The 2-part multiple-dose study, Study 2, determined the safety and tolerability of repeated daily doses of Compound 1 and investigated the effects on biomarkers of relevance for the treatment of alcohol dependence.
The safety of Compound 1 was evaluated in 2 Phase 1 studies in healthy adult volunteers (Study 1 and Study 2). In both studies, adverse events (AEs), clinical laboratory tests, vital signs (supine blood pressure and pulse rate), and electrocardiograms (ECGs) were evaluated. Overall, in Study 1, Compound 1 was well-tolerated.

[2] = Study 1: single-escalating oral dose pharmacokinetics in healthy adult subjects; details: for Cmax / AUC0-tlast / AUC0-∞ / CL/F / t1/2: geometric mean
Description: as §4
In Study 1, Compound 1 was administered to healthy adult subjects as a single PO dose of 2, 10, 50, 150, 400, or 800 mg in the fed state and 150 mg in the fasted state. Absorption occurred moderately late, achieving peak Cmax between 4 to 6 hours following dosing in the fed state.
When Compound 1 was given in the fed state, median time to reach maximum plasma concentration (Tmax) occurred between 4 and 6 hours.
As part of this single-dose escalation study, a food effect PK investigation was performed to examine Compound 1 exposures in both the fed and fasted states at the 150-mg dose level. A total of 6 subjects were administered 150 mg Compound 1 in each of these 2 dosing groups. Of these 6 subjects, 4 subjects received Compound 1 at the same dose in both fed and fasted states. […] Table 6 provides a summary of the PK parameters at the 150-mg dose level under both fed and fasted state conditions.
PK parameters AUC0-∞ and Cmax were analyzed separately for dose proportionality for Compound 1 from 50 to 800 mg when administered in the fed state. […] Dose proportionality across administered doses in the fed state could not be concluded on the basis of AUC0-∞ or Cmax.

[3] = Phase 2 study in adults with classic CAH: safety; details: patients with CAH, 5-fold range of doses
Description: as §1
as §2, with “Each cohort will undergo a 2-week run-in period, a 2-week treatment period, and a 30-day washout and safety follow-up period. During the run-in period, which will occur during screening, subjects will document in a paper diary each dose of glucocorticoid medication taken, the time of each meal, and the time they went to bed and woke up each day, to ensure compliance with background glucocorticoid regimens and the stability of their daily routine.” left out
• 1. […] To assess the efficacy of Compound 1 in subjects with classic CAH as measured by percent and absolute change in 17-OHP compared to baseline. […]

Androstenedione = experiment: Phase 2 study in adults with classic CAH: Androstenedione; details: patients with classic CAH
Description: as §1, §2, §3

[4] = single oral dose 150 mg, fasted

For `CCC(CC)c1cc(C)nc2c(-c3sc(N4CCOCC4)nc3Cl)c(C)nn12` [Compound 1, 3-(4-Chloro-2-(morpholin-4-yl)thiazol-5-yl)-7-(1-ethylpropyl)-2,5-dimethylpyrazolo(1,5-a)pyrimidine], the “subjects in the normal range (ACTH) after treatment” value (ACTH) was 40%, the “subjects with more than 25% reduction in ACTH” value (ACTH) was 70% and the “subjects with reduction in ACTH” value (ACTH) was 80%. The “subjects with more than 25% reduction in 17-OHP” value (17-OHP) was 50%, the “subjects with reduction in 17-OHP” value (17-OHP) was 80% and the “subjects within the guideline range (1200 ng/dL) of 17-OHP after treatment” value (17-OHP) was 50%. The tolerability ([1]; Study 1, single oral doses up to 800 mg) was “well-tolerated”, the tolerability ([1]; Study 2, multiple doses up to 200 mg) was “generally well tolerated” and the “increase of AUC0-∞ for every doubling of dose, relative to dose proportionality” value ([2]; 50 to 800 mg, fed state) was 1.74 times. For the same compound, the “mean AUC0-∞, fed state relative to fasted state” value ([2]; 150-mg dose, fed vs fasted) was “approximately 3 fold”, the “mean Cmax, fed state relative to fasted state” value ([2]; 150-mg dose, fed vs fasted) was roughly 11 fold and the half-life ([2]; human, plasma, single PO dose, fed and fasted state, overall range, read-out: half-life (t1/2), range) was 11 to 101 h. It also gave a Tmax ([2]; human, plasma, single oral dose 150 mg, fasted state, range, read-out: Tmax, range) of 6 to 12 h, a Tmax ([2]; single oral dose 2 mg, fed, median) of 6.00 h and a Cmax ([2]; single oral dose 2 mg, fed, plasma) of 0.867 ng/mL. The Tmax ([2]; single oral dose 10 mg, fed, median) was 4.00 h, the Cmax ([2]; single oral dose 10 mg, fed, plasma) was 3.01 ng/mL and the AUC0-tlast ([2]; single oral dose 50 mg, fed) was 152 ng·h/mL. The “AUC0-∞” value ([2]; single oral dose 50 mg, fed) was 165 ng·h/mL, the CL/F ([2]; single oral dose 50 mg, fed) was 302 L/h and the t1/2 ([2]; single oral dose 50 mg, fed) was 31 h. The Tmax ([2]; single oral dose 50 mg, fed, median) was 4.00 h, the Cmax ([2]; single oral dose 50 mg, fed, plasma) was 19.5 ng/mL and the AUC0-tlast [2, 4] was 288 ng·h/mL. The “AUC0-∞” value [2, 4] was 331 ng·h/mL, the CL/F [2, 4] was 454 L/h and the t1/2 [2, 4] was 38.4 h. It also gave a Tmax ([2]; single oral dose 150 mg, fasted, median) of 10.05 h, a Cmax ([2]; single oral dose 150 mg, fasted, plasma) of 8.22 ng/mL and an AUC0-tlast ([2]; single oral dose 150 mg, fed) of 891 ng·h/mL. The “AUC0-∞” value ([2]; single oral dose 150 mg, fed) was 956 ng·h/mL, the CL/F ([2]; single oral dose 150 mg, fed) was 157 L/h and the t1/2 ([2]; single oral dose 150 mg, fed) was 29.2 h. It also gave a Tmax ([2]; single oral dose 150 mg, fed, median) of 4.00 h, a Cmax ([2]; single oral dose 150 mg, fed, plasma) of 93.4 ng/mL and an AUC0-tlast ([2]; single oral dose 400 mg, fed) of 2300 ng·h/mL. For the same compound, the “AUC0-∞” value ([2]; single oral dose 400 mg, fed) was 2580 ng·h/mL, the CL/F ([2]; single oral dose 400 mg, fed) was 155 L/h and the t1/2 ([2]; single oral dose 400 mg, fed) was 44.2 h. It also gave a Tmax ([2]; single oral dose 400 mg, fed, median) of 4.00 h, a Cmax ([2]; single oral dose 400 mg, fed, plasma) of 207 ng/mL and an AUC0-tlast ([2]; single oral dose 800 mg, fed) of 4390 ng·h/mL. The “AUC0-∞” value ([2]; single oral dose 800 mg, fed) was 4850 ng·h/mL, the CL/F ([2]; single oral dose 800 mg, fed) was 165 L/h and the t1/2 ([2]; single oral dose 800 mg, fed) was 41.9 h. The Tmax ([2]; single oral dose 800 mg, fed, median) was 6.00 h, the Cmax ([2]; single oral dose 800 mg, fed, plasma) was 382 ng/mL and the tolerability [3] was “generally well-tolerated”. The “subjects with more than 25% reduction in Androstenedione” value (Androstenedione) was 60% and the “subjects within normal reference range (Androstenedione) after treatment” value (Androstenedione) was 50%.
